Like-named read-outs stand apart in the source and are kept apart here.
Columns and labels:
Assay in all cases: malachite green phosphate release, Michaelis-Menten fit
Assay type in all cases: biochemical
[1] = biological target: T1, TBC-DEG:αβ-tubulin:TBCC ternary complex (Saccharomyces cerevisiae, UniProt P39110, Q73L); details: 1 μM each TBC-DEG-Q73L, buffer and temperature same, text prints 387 μM, residual turnover ascribed to tubulin, read-out: Km (GTP)
T1 construct: gene CIN4; recombinant yeast TBC-DEG and full-length TBCC with equimolar double-cycled porcine brain tubulin dimer; tubulin may contribute to GTP turnover; with Protein CIN1; Protein PAC2; Tubulin-folding cofactor C; Tubulin alpha chain (Sus scrofa brain, isotype mixture); Tubulin beta chain (Sus scrofa brain, isotype mixture)
T1 sequence (P39110 whole entry Q73L, one chain of several): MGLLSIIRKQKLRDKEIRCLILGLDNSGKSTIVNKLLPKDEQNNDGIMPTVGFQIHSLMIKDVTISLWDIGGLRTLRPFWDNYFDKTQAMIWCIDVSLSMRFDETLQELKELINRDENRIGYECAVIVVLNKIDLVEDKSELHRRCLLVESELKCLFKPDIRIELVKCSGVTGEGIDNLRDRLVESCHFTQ
T1 sequence (P46670 whole entry partner, one chain of several): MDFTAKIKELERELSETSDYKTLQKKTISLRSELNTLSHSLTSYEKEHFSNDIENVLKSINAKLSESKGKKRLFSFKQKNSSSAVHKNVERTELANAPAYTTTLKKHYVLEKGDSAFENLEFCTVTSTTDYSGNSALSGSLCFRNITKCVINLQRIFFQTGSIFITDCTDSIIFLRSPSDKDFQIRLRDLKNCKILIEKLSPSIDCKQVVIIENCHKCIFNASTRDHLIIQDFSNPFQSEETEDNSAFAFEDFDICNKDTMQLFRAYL
T1 sequence (P02550 whole entry partner, one chain of several): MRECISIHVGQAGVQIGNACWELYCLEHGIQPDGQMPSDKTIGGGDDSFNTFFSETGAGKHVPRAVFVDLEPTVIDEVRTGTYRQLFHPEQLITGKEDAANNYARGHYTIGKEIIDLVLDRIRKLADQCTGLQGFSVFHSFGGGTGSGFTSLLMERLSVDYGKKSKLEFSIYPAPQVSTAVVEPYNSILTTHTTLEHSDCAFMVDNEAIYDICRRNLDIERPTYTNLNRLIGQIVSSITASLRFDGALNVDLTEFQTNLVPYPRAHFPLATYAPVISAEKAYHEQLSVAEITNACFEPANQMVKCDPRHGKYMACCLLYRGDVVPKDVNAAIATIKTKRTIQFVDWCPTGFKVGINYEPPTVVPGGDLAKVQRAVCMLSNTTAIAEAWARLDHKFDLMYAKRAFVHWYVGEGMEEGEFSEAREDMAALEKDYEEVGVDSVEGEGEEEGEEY
T1 sequence (P02554 whole entry partner, one chain of several): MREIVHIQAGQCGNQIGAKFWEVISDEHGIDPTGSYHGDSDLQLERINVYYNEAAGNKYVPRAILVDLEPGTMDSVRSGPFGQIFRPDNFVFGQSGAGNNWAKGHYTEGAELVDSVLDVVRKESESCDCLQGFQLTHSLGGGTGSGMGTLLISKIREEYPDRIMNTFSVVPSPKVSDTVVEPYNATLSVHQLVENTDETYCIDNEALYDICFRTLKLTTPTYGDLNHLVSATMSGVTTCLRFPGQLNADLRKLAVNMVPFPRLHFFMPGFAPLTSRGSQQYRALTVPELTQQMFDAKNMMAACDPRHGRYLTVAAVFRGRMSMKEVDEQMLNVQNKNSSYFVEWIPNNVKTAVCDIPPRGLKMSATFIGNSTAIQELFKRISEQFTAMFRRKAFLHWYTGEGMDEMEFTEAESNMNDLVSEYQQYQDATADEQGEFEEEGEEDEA
Text: (§1) malachite green phosphate release, Michaelis-Menten fit on TBC-DEG:αβ-tubulin:TBCC ternary complex

[2] = biological target: T2, TBC-DEG:αβ-tubulin:TBCC ternary complex (Saccharomyces cerevisiae, UniProt P39110); details: 1 μM each TBC-DEG, buffer and temperature same, read-out: Km (GTP)
T2 construct: gene CIN4; recombinant yeast TBC-DEG and full-length TBCC with equimolar double-cycled porcine brain tubulin dimer; tubulin may contribute to GTP turnover; with Protein CIN1; Protein PAC2; Tubulin-folding cofactor C; Tubulin alpha chain (Sus scrofa brain, isotype mixture); Tubulin beta chain (Sus scrofa brain, isotype mixture)
Text: as §1

TBC-DEG (TBCD-TBCE-Arl2) = biological target: T3, TBC-DEG (TBCD-TBCE-Arl2) (Saccharomyces cerevisiae, UniProt P39110); details: 1 μM TBC-DEG alone; 0-800 μM GTP; 50 mM HEPES, 100 mM KCl; 30 °C, 90 min
T3 construct: gene CIN4; full-length subunits co-expressed in E. coli (polycistronic), 6xHis N-terminal tag; 1:1:1 heterotrimer, ~205 kDa; with Protein CIN1; Protein PAC2
T3 sequence (P39110 1-191): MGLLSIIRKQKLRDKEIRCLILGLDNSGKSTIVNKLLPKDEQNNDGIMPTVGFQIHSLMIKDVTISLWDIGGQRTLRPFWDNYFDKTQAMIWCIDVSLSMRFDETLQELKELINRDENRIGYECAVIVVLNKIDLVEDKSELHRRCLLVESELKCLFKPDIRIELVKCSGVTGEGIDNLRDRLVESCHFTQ
T3 sequence (P40987 1-1014 partner): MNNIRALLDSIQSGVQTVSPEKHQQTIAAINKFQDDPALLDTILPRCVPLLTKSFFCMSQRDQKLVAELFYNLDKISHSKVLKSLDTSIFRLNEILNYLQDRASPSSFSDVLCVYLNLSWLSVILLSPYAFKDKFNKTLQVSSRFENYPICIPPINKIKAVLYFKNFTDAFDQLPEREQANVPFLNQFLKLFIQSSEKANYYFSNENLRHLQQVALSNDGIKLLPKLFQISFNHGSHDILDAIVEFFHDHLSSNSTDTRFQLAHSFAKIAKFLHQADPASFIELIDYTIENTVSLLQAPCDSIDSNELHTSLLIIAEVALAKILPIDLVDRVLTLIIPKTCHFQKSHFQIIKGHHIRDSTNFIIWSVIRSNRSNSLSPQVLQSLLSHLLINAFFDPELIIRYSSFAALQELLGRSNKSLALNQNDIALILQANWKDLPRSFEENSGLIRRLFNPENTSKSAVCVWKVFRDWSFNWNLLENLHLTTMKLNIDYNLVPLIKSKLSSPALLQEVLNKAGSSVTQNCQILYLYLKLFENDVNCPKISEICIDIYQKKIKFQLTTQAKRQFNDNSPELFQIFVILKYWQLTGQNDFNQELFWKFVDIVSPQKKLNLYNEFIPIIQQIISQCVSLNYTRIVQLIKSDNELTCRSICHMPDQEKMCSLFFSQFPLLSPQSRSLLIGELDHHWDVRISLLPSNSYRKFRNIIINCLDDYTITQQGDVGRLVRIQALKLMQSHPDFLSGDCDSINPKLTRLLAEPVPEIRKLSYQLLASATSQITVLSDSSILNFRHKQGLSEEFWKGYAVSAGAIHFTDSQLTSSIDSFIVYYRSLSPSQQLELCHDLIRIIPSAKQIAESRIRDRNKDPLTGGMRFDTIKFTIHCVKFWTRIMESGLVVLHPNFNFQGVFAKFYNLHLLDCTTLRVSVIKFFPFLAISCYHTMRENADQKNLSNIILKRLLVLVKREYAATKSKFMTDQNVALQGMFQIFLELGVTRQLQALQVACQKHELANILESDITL
T3 sequence (P39937 1-518 partner): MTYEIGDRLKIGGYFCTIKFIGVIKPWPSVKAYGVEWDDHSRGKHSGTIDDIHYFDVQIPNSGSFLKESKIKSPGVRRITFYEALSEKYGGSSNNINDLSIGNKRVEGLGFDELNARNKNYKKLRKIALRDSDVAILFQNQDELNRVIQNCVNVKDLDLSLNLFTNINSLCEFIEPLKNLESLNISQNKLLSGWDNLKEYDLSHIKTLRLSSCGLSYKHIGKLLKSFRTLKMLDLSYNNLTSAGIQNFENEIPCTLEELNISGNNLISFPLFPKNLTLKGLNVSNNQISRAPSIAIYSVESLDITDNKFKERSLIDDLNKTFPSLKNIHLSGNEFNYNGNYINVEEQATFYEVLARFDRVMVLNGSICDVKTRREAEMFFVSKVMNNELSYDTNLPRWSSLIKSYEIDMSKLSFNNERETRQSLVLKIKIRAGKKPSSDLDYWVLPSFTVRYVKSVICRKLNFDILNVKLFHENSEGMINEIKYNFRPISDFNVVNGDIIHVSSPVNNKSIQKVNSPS
Text: malachite green phosphate release, Michaelis-Menten fit on TBC-DEG (TBCD-TBCE-Arl2)

TBC-DEG:TBCC = biological target: T4, TBC-DEG:TBCC (Saccharomyces cerevisiae, UniProt P39110); details: 1 μM TBC-DEG, 1 μM TBCC; buffer and temperature same; read-out: Km (GTP)
T4 construct: gene CIN4; TBC-DEG mixed with equimolar full-length TBCC (GAP), all recombinant from E. coli; with Protein CIN1; Protein PAC2; Tubulin-folding cofactor C
T4 sequence (P46670 whole entry partner, one chain of several): as the sequence (P46670 whole entry partner, one chain of several) above
Text: malachite green phosphate release, Michaelis-Menten fit on TBC-DEG:TBCC

[3] = biological target: T5, TBC-DEG:αβ-tubulin:TBCC-Cterm (TBCC-C) (Saccharomyces cerevisiae, UniProt P39110); details: 1 μM each TBC-DEG, buffer and temperature same, read-out: Km (GTP)
T5 construct: gene CIN4; as ternary complex but TBCC beta-helix domain only (residues 100-267, spectrin domain removed); with Protein CIN1; Protein PAC2; Tubulin-folding cofactor C; Tubulin alpha chain (Sus scrofa brain, isotype mixture); Tubulin beta chain (Sus scrofa brain, isotype mixture)
T5 sequence (P46670 100-267 partner, one chain of several): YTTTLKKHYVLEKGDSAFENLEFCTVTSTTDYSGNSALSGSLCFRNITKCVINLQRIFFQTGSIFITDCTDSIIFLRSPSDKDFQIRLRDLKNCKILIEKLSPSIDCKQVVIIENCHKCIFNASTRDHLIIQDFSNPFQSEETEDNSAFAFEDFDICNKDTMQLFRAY
T5 sequence (P02550 whole entry partner, one chain of several, the tested form may be a part): as the sequence (P02550 whole entry partner, one chain of several) above
T5 sequence (P02554 whole entry partner, one chain of several, the tested form may be a part): as the sequence (P02554 whole entry partner, one chain of several) above
Text: malachite green phosphate release, Michaelis-Menten fit on TBC-DEG:αβ-tubulin:TBCC-Cterm (TBCC-C)

TBC-DEG:αβ-tubulin = biological target: T6, TBC-DEG:αβ-tubulin (Saccharomyces cerevisiae, UniProt P39110); details: 1 μM TBC-DEG, 1 μM αβ-tubulin; buffer and temperature same; GTPase site may be Arl2 or tubulin; read-out: Km (GTP)
T6 construct: gene CIN4; recombinant yeast TBC-DEG with equimolar double-cycled porcine brain tubulin dimer; tubulin may contribute to GTP turnover; with Protein CIN1; Protein PAC2; Tubulin alpha chain (Sus scrofa brain, isotype mixture); Tubulin beta chain (Sus scrofa brain, isotype mixture)
T6 sequence (P02550 whole entry partner, one chain of several): as the sequence (P02550 whole entry partner, one chain of several) above
T6 sequence (P02554 whole entry partner, one chain of several): as the sequence (P02554 whole entry partner, one chain of several) above
Text: malachite green phosphate release, Michaelis-Menten fit on TBC-DEG:αβ-tubulin

## Nc1nc2c(ncn2[C@@H]2O[C@H](COP(=O)(O)OP(=O)(O)OP(=O)(O)O)[C@@H](O)[C@H]2O)c(=O)[nH]1 [GTP]
[1]
  Km: 371 ± 20 µM
[2]; TBCC-R186A, arginine finger mutant
  Km: 40 ± 10 µM
[2]; TBCC-Δ233-245, αβ-tubulin
  Km: 35 ± 8 µM
[2]; Arl2 with minor tubulin contribution
  Km: 99 ± 10 µM
TBC-DEG (TBCD-TBCE-Arl2)
  Km: 400 ± 30 µM
TBC-DEG:TBCC
  Km: 94 ± 10 µM
[3]
  Km: 56 ± 7 µM
TBC-DEG:αβ-tubulin
  Km: 69 ± 12 µM
